Results as given in patent publication US9205121B2, “Echinacea formulation” (Integria Healthcare (Australia) PTY LTD, priority 2004, dated 2015).

Key:
Assay in all cases: metabolism of 3 by recombinant human P450
Type in all cases: in vitro ADME
[1] = test system: P450 3A4; settings: recombinant P450 3A4, preliminary screen
Excerpt: (§1) Recombinant P450s were co-expressed with hNPR in Escherichia coli according to the general procedures outlined previously. Recombinant P450 preparations were obtained from bacteria transformed with bicistronic expression vectors for P450s 1A1, 1A2, 2D6, 2E1 and 3A4 [6]; 1B1 [10]; 2A6 [8]; P450 2B6 [11]; 2C9 (wild type; P450 2C9*1) and 2C19 [12]; 3A5 and 3A7 [12] and 4A11 (D. Kim and F. P. Guengerich, unpublished data). cDNAs for P450s 2C8 and 2C18 were obtained from Prof D. J. Birkett (Flinders University of South Australia) and Prof. Philippe Beaune (INSERM U490, Universite Rene Descartes, Paris V, France) respectively, and bicistronic constructs in pCW were made according to previously published methods. Membranes from cells transformed with the monocistronic expression vector for recombinant human reductase, pCW′/hNPR, were used as a negative control. Expression of P450s and preparation of bacterial membrane fractions was done according to established methods.
(§2) Incubations (0.2 mL) with recombinant enzyme preparations were performed as described above except that bacterial membrane preparations were used at 0.1 μM P450. For P450s 3A4 and 3A5, reductase concentrations were supplemented to two fold the P450 concentration by addition of membranes from cells expressing reductase alone. For P450s 2C9 and 2C19, reductase concentrations were supplemented to five fold the P450 concentration. Negative controls contained bacterial membranes derived from cells transformed with the empty expression vector alone (“pCW”) or cells expressing only reductase (“hNPR”). Negative controls contained membranes added at total protein (“pCW”) or reductase “hNPR”) concentrations at the upper limit of those present in incubations with recombinant P450 preparations.
(§3) A preliminary screen was performed to investigate metabolism of 3 by recombinant human P450s.

[2] = molecular target: T1, P450 1B1 (Homo sapiens, UniProt Q16678); settings: recombinant P450 1B1, preliminary screen
T1 construct: made in house; host or cells: Escherichia coli, bacterial membrane fraction, bicistronic vector
T1 sequence (Q16678 1-543): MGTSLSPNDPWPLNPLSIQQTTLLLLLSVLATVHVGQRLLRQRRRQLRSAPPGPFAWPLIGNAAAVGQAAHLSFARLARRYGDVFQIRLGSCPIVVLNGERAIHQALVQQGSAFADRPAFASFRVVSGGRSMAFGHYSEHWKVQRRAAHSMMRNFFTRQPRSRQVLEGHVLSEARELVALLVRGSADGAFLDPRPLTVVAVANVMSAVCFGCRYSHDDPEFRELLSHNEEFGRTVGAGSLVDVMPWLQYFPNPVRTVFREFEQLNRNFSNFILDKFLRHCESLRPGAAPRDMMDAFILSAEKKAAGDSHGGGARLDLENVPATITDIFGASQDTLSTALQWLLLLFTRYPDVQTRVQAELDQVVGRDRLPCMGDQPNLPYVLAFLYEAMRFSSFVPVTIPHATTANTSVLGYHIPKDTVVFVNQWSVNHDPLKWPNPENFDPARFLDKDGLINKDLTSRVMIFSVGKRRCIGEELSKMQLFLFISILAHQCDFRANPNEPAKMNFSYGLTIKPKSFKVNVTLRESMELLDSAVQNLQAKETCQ
Excerpt: as §1, §2, §3

[3] = molecular target: T2, P450 2D6 (Homo sapiens, UniProt P10635); settings: recombinant P450 2D6, preliminary screen
T2 construct: made in house; host or cells: Escherichia coli, bacterial membrane fraction, bicistronic vector
Excerpt: as §1, §2, §3

[4] = molecular target: T3, P450 3A5 (Homo sapiens, UniProt P20815); settings: recombinant P450 3A5, preliminary screen
T3 construct: made in house; host or cells: Escherichia coli, bacterial membrane fraction, bicistronic vector; reductase topped up to two fold the P450 concentration
Excerpt: as §1, §2, §3

[5] = molecular target: T4, P450 2C9 (Homo sapiens, UniProt P11712); settings: recombinant P450 2C9, preliminary screen
T4 construct: made in house; host or cells: Escherichia coli, bacterial membrane fraction, bicistronic vector; reductase topped up to five fold the P450 concentration
Excerpt: as §1, §2, §3

[6] = molecular target: T5, P450 2C8 (Homo sapiens, UniProt P10632); settings: recombinant P450 2C8, preliminary screen
T5 construct: made in house; host or cells: Escherichia coli, bacterial membrane fraction, bicistronic construct in pCW
T5 sequence (P10632 1-490): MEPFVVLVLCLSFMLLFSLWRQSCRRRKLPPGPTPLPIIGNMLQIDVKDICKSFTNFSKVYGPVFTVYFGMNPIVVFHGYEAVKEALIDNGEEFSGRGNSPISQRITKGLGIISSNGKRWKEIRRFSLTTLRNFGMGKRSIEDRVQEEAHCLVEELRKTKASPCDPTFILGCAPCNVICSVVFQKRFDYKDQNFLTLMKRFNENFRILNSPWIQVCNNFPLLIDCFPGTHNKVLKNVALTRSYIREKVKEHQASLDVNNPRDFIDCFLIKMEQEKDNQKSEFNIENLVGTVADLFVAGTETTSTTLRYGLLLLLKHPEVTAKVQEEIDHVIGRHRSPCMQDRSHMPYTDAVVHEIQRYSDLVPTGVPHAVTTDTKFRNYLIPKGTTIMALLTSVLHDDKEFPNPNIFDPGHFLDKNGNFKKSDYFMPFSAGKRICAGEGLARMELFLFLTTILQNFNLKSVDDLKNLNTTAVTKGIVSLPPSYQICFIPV
Excerpt: as §1, §2, §3

[7] = molecular target: T6, P450 2C19 (Homo sapiens, UniProt P33261); settings: recombinant P450 2C19, preliminary screen
T6 construct: made in house; host or cells: Escherichia coli, bacterial membrane fraction, bicistronic vector; reductase topped up to five fold the P450 concentration
Excerpt: as §1, §2, §3

[8] = molecular target: T7, P450 1A1 (Homo sapiens, UniProt P04798); settings: recombinant P450 1A1, preliminary screen
T7 construct: made in house; host or cells: Escherichia coli, bacterial membrane fraction, bicistronic vector
T7 sequence (P04798 1-512): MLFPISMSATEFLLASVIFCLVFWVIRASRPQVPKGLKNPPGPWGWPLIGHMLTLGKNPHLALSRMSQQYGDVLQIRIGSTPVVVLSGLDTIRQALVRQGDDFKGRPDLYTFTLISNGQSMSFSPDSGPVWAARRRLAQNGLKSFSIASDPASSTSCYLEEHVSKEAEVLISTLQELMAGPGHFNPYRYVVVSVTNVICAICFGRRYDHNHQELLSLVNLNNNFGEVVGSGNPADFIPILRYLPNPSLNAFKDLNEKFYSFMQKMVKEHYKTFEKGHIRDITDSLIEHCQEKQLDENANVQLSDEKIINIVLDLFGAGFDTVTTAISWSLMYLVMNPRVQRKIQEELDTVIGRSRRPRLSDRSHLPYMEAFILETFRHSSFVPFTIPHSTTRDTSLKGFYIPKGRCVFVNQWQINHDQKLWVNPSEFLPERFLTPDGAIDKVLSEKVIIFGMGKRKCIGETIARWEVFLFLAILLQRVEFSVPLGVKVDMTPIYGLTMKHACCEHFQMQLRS
Excerpt: as §1, §2, §3

T6 sequence (P33261 whole entry): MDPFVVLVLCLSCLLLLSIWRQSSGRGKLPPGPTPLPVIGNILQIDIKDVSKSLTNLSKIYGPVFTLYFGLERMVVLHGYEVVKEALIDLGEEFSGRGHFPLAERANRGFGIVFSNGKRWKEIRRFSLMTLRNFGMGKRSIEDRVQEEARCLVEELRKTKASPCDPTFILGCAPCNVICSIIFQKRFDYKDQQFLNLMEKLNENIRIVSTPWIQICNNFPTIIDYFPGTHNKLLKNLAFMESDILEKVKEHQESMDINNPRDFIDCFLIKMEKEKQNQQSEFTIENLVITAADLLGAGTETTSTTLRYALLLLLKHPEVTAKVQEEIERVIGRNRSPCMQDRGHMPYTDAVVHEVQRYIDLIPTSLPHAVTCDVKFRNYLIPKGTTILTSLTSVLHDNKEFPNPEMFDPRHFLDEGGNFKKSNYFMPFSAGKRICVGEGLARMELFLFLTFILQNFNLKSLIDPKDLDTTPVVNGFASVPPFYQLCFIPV
T4 sequence (P11712 whole entry): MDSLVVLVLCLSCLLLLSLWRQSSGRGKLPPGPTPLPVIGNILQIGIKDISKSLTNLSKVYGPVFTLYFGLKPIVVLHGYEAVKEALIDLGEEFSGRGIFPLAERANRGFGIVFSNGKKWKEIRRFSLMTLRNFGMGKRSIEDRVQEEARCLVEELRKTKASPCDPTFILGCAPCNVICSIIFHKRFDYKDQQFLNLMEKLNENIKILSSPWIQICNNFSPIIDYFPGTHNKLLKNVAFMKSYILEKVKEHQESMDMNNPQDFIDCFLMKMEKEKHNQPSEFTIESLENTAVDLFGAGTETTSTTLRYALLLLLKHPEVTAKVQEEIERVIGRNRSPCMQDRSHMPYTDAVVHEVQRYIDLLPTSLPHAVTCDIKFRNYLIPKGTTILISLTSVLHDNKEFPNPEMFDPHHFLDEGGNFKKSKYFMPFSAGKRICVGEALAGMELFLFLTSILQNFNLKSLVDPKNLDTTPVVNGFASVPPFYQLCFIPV
T3 sequence (P20815 whole entry): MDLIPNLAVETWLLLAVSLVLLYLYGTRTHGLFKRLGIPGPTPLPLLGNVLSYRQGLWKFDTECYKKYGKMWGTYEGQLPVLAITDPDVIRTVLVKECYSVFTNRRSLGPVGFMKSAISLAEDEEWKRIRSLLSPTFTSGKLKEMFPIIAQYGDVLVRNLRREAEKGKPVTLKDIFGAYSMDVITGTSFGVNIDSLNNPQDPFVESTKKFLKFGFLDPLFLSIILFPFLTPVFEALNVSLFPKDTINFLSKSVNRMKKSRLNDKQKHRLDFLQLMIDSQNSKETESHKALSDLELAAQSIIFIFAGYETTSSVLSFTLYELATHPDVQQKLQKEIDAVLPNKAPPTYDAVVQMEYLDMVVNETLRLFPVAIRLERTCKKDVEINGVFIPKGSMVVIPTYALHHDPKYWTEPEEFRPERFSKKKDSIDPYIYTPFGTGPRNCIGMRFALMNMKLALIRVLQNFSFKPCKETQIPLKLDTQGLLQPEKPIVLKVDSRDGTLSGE
T2 sequence (P10635 whole entry): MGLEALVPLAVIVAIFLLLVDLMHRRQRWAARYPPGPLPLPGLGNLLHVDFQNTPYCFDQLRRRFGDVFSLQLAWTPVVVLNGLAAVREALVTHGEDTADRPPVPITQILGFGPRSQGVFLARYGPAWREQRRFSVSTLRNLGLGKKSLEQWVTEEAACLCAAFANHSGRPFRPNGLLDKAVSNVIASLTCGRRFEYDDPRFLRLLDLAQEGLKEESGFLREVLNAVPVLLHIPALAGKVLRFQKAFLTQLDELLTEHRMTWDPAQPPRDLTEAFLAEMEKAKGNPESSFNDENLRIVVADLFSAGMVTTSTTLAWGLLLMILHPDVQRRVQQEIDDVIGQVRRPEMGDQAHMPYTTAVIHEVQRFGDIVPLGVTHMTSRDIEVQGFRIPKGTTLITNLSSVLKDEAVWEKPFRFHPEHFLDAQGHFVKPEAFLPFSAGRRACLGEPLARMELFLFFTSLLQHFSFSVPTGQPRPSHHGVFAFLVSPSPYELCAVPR

consumption of 3 [1]: observed
consumption of 3 [2]: observed
consumption of 3 [3]: observed
consumption of 3 [4]: observed
consumption of 3 [5]: observed
consumption of 3 [6]: observed
consumption of 3 [7]: observed
consumption of 3 [8]: observed
SMILES: C/C=C\C=C/CC/C=C/C=C/C(=O)NCC(C)C [alkylamide 3, (2E,4E,8Z,10Z)—N-isobutyldodeca-2,4,8,10-tetraenamide]
